Laboratory results: US8492362B1, “5-(E)-Bromovinyl uracil analogues and related pyrimidine nucleosides as anti-varicella zoster virus agents and methods of use” (priority 2011, dated 2013)
Read-outs that look alike come from different tables or passages of the source.

How the values were obtained:
[1] = herpes zoster patients, 125 mg/day; cited from earlier work
VZV-BAC-Luc [2] = format: cell-based, Varicella-zoster virus; conditions: HFF at 48 hpi, read-out: EC50 in HFF, prodrug study
VZV-BAC-Luc [3] = experiment: VZV-BAC-Luc dose-response in human skin organ culture (SOC); conditions: read-out: EC50 in skin organ culture (SOC), skin explants, Day 6 (6 dpi)
[4] = system: human foreskin fibroblasts (HFFs); experiment: Neutral red dye uptake cytotoxicity assay in HFFs; format: cell-based; conditions: 35 nM
Procedure: The neutral red (NR) cytotoxicity assay was performed as described previously (Rowe et al.) and is based on the method of (Babich et al., 2002).
To determine the toxicity of L-BHDU in culture, a neutral red dye uptake assay was performed. The amount of dye absorbed is directly proportional to cell number and membrane integrity (Repetto et al., 2008). Primary human foreskin fibroblasts (HFFs) were treated with either 35 nM staurosporine to induce apoptosis, DMSO diluent alone, or 0.1 to 200 μM L-BHDU, refreshed daily. The uptake of neutral red dye was evaluated at 0, 24, 48, and 72 h post treatment. Absorbance values from 6 replicates at each dose were averaged and plotted against treatment time (FIG. 1A). […] In the cultures treated with 200 μM L-BHDU or DMSO at an equivalent diluent concentration, cell viability declined between 48-72 h. […] This substantiates previous reports that L-BHDU caused no cell growth arrest up to 200 μM in HEL 299 cells (human embryonic lung) (Li et al., 2000).

VZV-BAC-Luc [5] = conditions: 36 mg/kg/day subcutaneously from osmotic pumps; cited from earlier work
VZV-BAC-Luc [6] = format: in vivo, Varicella-zoster virus; conditions: 3 mg/mL in drinking water
[7] = 3 mg/mL in drinking water
VZV = conditions: Oliver et al., 2008; cited from earlier work

O=c1[nH]c(=O)n([C@H]2C[C@H](O)[C@@H](CO)O2)cc1/C=C/Br [brivudin, (E)-5-(2-bromovinyl)-2′-deoxyuridine]
Cmax (plasma) [1]: 1.7 µg/mL

CC(C)C(N)C(=O)OCC1OCC(n2cc(C=CBr)c(=O)[nH]c2=O)O1 (stereo not shown) [valyl derivative]
EC50 (VZV-BAC-Luc [2]): 0.038 µM | EC50 (VZV-BAC-Luc [3]): 0.05 µM

CN[C@@H]1C[C@H]2O[C@@](C)([C@@H]1OC)n1c3ccccc3c3c4c(c5c6ccccc6n2c5c31)C(=O)NC4 [staurosporine, reference compound]
cell viability, positive control for cell death [4]: no viable cells were detected

O=C(O)CP(=O)(O)O [phosphonoacetic acid (PAA), phosphonoacetic acid]
effect on VZV growth in SCID-Hu model (Rowe et al.) (VZV-BAC-Luc [5]): significantly reduced VZV growth

CC(C)[C@H](N)C(=O)OCCOCn1cnc2c(=O)[nH]c(N)nc21 [valaciclovir, reference compound]
antiviral effect in SCID-Hu mice (VZV-BAC-Luc [6]): no antiviral effect | average VZV growth rate (VZV-BAC-Luc [6]; n=5): 0.62±0.05 log10 photons/s/day | antiviral effect in SCID-Hu mice (VZV-BAC-Luc [6]; listed as VACV): not effective | loss of body weight [7]: > 20% | effect on VZV replication in SCID-Hu mice (VZV): little to no effect
